# Test results published in patent publication US20080234132A1, “Microcin B17 Analogs And Methods For Their Preparation And Use” (priority 2004, published 2008).
# pIC50: −log10 of the molar value.
# Columns and labels:
# [1] = tested on: Arabidopsis thaliana ecotype Columbia plants; assay: Effects on A. thaliana seedlings and plants; format: in vivo; settings: Table 5-C
# Experimental: The microcin derivatives were tested for efficacy in planta against Arabidopsis thaliana ecotype Columbia according to known methods (see Wall et al., 2004). Seeds were germinated on sterile media containing the appropriate peptide and the effects were observed over a three week period. […] In […] seeds, such as A. thaliana, during imbibition the quiescent seed rapidly resumes metabolic and respiratory activity. One of the first steps, as part of this process, is the initiation of mitochondrial DNA synthesis which requires DNA gyrase and which may explain the exquisite sensitivity of the germinating seeds to Peptides 1 and 2.
# The leaf tissue initially turned yellow, followed by rapid necrosis of the tissue (see FIG. 32). […] The high hydrophility of Peptide 1 may preferentially allow the compound to readily diffuse through the leaf cuticle and epidermis to the mesophyll and phloem below.
# The heterocyclic compounds were also spotted onto the leaves of 4 week old, tissue culture grown Arabidopsis thaliana ecotype Columbia plants (see FIG. 34, panels A-1). […] The browning and necrosis diffused through the full thickness of the leaf over the next 60 minutes (see FIG. 34, panel F) and spread towards the meristem (see FIG. 34, panels E, F, H). Complete necrosis of the meristem and newly emerged leaves, where organellar replication takes place, was complete within 24 hours (see FIG. 34, panel F).
# [2] = biological target: T1, Human topoisomerase I (Homo sapiens, UniProt P11387); assay: Human topoisomerase I-mediated relaxation assay; format: biochemical; settings: read-out: Topo I Human IC50
# T1 construct: purchased TopoGEN Inc. (Port Orange, Fla., USA)
# T1 sequence (P11387 1-765): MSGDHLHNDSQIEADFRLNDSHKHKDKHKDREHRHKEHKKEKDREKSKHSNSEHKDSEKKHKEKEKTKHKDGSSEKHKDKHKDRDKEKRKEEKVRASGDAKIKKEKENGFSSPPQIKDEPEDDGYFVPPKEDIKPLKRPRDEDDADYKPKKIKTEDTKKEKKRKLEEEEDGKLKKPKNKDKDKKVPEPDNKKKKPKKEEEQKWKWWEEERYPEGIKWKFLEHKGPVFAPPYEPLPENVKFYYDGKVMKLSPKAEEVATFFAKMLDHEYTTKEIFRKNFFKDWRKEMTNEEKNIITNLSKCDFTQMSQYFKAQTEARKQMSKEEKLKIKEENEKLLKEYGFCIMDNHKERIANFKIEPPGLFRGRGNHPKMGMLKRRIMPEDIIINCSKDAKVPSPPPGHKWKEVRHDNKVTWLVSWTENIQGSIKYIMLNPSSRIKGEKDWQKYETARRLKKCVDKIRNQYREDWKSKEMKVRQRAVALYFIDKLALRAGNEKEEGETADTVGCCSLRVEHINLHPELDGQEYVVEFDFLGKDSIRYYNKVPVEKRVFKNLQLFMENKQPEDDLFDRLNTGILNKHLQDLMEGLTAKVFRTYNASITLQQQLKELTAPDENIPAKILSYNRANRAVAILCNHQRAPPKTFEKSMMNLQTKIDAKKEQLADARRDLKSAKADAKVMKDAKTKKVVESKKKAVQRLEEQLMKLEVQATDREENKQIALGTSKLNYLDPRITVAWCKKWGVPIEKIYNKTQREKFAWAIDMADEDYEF
# Experimental: Human topoisomerase I-mediated relaxation assays were performed as per the manufacturer's instructions. Topoisomerase I (2 nM) was added to reactions containing 10 mM of Tris.HCl, pH 7.9, 150 mM NaCl, 100 μM spermidine.HCl, 5% glycerol, 0.1% BSA, 4.6 nM of […] pBR322 DNA, and inhibitor where appropriate.
# (§1) All in vitro reactions were incubated at 37° C. for 30 minutes. The DMSO concentration in each reaction was kept constant at 3.33%. Reactions were quenched with the addition of an equal volume of phenol/chloroform/isoamyl alcohol (25:24:1) and one tenth volume of loading buffer containing 40% sucrose, 100 mM Tris.HCl pH 7.5, 100 mM EDTA, 2 mg/mL bromophenol blue. The proteins were precipitated by vortexing, followed by centrifugation for 5 minutes at 16 000 g. The aqueous phase was loaded onto 1% agarose gels in Tris-acetate and were electrophoresed at 60 V for three hours in Tris-acetate buffer. The gels were stained in 1 μg/mL ethidium bromide. The gels were visualised using UV light and were documented and analysed using Syngene software.
# [3] = tested on: HeLa cells; assay: MTT cell viability assay, HeLa; format: cell-based, human; settings: cell reads on: Active
# Experimental: Human cell cultures were initiated from frozen cell stocks (the gift of Dr J. Gavrilovic, UEA). […] Both human cell lines form adherent cultures and were maintained at 37° C. in T25 culture vessels as 10 mL cultures in CO2 Independent Media containing 10% foetal bovine serum (EU approved), 4 mM L-glutamine, penicillin/streptomycin (Invitrogen). […] Media was renewed every three days.
# After incubation with MTT and solubilization, the resulting coloured solution is quantified using a scanning spectrophotometer. […] Cell viability was then determined by addition of MTT reagent (20 μL) in each well, as per manufacturer's instructions and incubated for a further 4 hours. Solubilization solution (100 μL) was added per well and the plates incubated overnight at 37° C. The plates were read in a spectrophotometer (scanning from 500-650 nm, signal peak at 570 nm).
# [4] = biological target: T2, Human topoisomerase IIα (Homo sapiens, UniProt P11388); assay: Human topoisomerase IIα-mediated decatenation assay; format: biochemical; parameters: purchased TopoGEN Inc
# T2 sequence (P11388 whole entry): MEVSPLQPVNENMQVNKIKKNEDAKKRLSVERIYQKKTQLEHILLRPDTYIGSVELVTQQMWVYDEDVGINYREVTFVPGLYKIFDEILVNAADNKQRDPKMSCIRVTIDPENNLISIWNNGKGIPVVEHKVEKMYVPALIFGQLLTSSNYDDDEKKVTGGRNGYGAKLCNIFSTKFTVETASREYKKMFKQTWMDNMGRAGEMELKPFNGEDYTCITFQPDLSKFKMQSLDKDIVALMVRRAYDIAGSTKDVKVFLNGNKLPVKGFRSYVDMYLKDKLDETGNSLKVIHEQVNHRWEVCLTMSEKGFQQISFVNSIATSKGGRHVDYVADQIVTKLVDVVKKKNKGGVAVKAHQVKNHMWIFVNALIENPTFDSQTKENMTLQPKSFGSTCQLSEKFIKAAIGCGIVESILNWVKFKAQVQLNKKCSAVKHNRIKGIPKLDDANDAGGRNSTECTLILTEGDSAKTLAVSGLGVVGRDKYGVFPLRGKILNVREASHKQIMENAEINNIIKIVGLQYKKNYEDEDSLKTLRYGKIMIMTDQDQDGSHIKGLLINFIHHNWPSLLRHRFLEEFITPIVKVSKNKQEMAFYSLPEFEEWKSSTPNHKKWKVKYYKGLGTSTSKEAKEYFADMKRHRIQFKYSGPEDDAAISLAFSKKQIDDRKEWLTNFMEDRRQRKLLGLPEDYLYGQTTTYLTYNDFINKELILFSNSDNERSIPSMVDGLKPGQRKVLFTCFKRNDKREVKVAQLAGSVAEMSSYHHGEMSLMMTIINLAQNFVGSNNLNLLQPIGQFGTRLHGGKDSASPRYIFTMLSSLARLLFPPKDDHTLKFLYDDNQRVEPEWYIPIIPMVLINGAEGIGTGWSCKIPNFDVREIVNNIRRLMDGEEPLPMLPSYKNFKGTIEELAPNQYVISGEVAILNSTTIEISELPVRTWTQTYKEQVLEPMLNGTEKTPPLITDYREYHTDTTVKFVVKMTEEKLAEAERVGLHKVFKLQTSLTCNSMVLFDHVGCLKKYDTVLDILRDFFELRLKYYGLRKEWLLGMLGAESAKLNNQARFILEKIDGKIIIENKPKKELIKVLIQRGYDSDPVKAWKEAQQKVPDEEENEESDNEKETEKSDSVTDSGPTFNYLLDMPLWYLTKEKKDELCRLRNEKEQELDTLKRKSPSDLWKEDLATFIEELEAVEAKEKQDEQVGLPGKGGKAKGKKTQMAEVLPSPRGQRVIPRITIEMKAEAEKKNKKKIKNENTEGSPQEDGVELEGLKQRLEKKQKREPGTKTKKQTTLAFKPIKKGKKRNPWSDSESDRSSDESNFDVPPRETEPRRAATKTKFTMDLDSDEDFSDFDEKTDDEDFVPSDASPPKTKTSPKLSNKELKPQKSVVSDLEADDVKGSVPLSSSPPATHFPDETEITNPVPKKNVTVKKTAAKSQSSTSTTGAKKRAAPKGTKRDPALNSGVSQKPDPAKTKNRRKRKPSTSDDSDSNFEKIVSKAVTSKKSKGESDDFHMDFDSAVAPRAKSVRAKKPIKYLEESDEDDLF
# Experimental: (§2) Human Topoisomerase IIα-mediated relaxation assays and decatenation assays were performed as per the manufacturer's instructions in a total of 20 μL. Relaxation assays contained Topoisomerase IIα (4.3 nM), 50 mM Tris.HCl pH 8,120 mM KCl, 10 mM MgCl2, 0.5 mM DTT, 0.5 mM ATP, 4.6 nM of supercoiled pBR322 DNA, and inhibitor where appropriate. Decatenation assays substituted the supercoiled DNA with 200 ng catenated kinetoplast DNA.
# as §1
# [5] = biological target: T3, E. coli Topoisomerase IV (Escherichia coli, UniProt P0AFI2+P20083); assay: Topoisomerase IV-mediated decatenation assay; format: biochemical; parameters: purchased John Innes Enterprises
# T3 sequence (P20083 whole entry): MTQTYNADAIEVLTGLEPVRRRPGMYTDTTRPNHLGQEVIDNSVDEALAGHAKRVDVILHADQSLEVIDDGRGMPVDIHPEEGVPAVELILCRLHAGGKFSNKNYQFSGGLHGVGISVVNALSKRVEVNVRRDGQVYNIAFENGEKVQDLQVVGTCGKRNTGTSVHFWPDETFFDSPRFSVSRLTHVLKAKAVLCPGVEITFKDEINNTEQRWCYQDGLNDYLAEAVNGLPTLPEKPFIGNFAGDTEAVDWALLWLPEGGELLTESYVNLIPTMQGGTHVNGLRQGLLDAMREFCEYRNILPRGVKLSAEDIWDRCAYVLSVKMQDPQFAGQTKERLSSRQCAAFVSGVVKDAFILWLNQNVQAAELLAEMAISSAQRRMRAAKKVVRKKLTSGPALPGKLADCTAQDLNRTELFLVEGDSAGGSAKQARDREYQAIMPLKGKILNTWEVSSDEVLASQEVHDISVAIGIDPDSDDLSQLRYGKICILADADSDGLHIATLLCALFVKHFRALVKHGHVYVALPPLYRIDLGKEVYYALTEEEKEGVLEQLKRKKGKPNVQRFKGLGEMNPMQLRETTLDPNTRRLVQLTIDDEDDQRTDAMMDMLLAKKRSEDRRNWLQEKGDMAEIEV
# T3 sequence (P0AFI2 whole entry): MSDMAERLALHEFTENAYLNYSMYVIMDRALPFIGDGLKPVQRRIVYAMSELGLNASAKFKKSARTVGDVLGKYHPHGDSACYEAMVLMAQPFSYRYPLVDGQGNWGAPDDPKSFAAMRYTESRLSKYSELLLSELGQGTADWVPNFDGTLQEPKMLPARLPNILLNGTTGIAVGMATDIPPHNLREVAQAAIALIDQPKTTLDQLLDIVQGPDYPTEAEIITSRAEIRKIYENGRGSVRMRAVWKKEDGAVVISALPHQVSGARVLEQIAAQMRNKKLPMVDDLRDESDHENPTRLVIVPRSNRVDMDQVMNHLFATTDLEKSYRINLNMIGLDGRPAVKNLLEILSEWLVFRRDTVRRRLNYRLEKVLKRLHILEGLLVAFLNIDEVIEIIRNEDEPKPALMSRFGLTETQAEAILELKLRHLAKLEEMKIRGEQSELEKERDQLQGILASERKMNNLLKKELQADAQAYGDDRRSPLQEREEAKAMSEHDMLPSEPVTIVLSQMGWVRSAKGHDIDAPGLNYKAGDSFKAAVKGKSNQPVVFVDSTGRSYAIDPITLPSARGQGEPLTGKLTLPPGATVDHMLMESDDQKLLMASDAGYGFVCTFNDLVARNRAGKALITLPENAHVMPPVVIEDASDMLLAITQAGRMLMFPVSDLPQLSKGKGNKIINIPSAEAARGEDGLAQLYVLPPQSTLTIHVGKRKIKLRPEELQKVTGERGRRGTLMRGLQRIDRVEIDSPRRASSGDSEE
# Experimental: Topoisomerase IV-mediated relaxation assays and decatenation assays were performed as previously described (see Peng and Marians, 1993). Relaxation assays contained topoisomerase IV (20 nM), 40 mM Tris.HCl pH 7.5 at 30° C., 6 mM MgCl2, 10 mM DTT, 1 mM spermidine.HCl, 20 mM KCl, 1 mM ATP, 0.5 mg/mL BSA, 4.6 nM of supercoiled pBR322 DNA and inhibitor where appropriate. Decatenation assays contained topoisomerase IV (4 nM), 40 mM Tris HCl pH 7.5 at 30° C., 6 mM MgCl2, 10 mM DTT, 1 mM spermidine.HCl, 100 mM potassium glutamate, 0.5 mM ATP, 0.5 mg/mL BSA, 200 ng of kinetoplast DNA, and inhibitor where appropriate.
# as §1
# [6] = biological target: T3, E. coli Topoisomerase IV; assay: biochemical; parameters: purchased John Innes Enterprises (Norwich, UK); settings: read-out: Topo IV, R (relaxation reaction) IC50
# Experimental: Topoisomerase IV-mediated relaxation assays and decatenation assays were performed as previously described (see Peng and Marians, 1993). […] Decatenation assays contained topoisomerase IV (4 nM), 40 mM Tris HCl pH 7.5 at 30° C., 6 mM MgCl2, 10 mM DTT, 1 mM spermidine.HCl, 100 mM potassium glutamate, 0.5 mM ATP, 0.5 mg/mL BSA, 200 ng of kinetoplast DNA, and inhibitor where appropriate.
# [7] = biological target: T2, Human topoisomerase IIα; assay: Human Topoisomerase IIα-mediated relaxation assay; format: biochemical; parameters: purchased TopoGEN Inc. (Port Orange, Fla., USA); settings: read-out: Topo IIα Human, R (relaxation reaction) IC50
# Experimental: as §2, §1
# [8] = biological target: T2, Human topoisomerase IIα; assay: Human Topoisomerase IIα decatenation assay; format: biochemical; parameters: purchased TopoGEN Inc. (Port Orange, Fla., USA); settings: read-out: Topo IIα Human, D (decatenation reaction) IC50
# Experimental: as §2, §1
smiles,measurement,setting,value
CC(C)(C)OC(=O)NCc1nc(C(=O)O)co1 [#6],"In vivo Plants, P (whole plants, expanded Arabidopsis leaves)",[1],P > 300 μM
same,pIC50,[2],< 3.52
same,In vivo HeLa Cells activity,[3],Not
same,"Decatenation activity of eukaryotic topoisomerase IIα, sensitivity",[4],albeit weakly
same,"Decatenation activity of topoisomerase IV, sensitivity",[5],albeit weakly
same,pIC50,[6],< 3.52
same,pIC50,[7],< 3.60
same,pIC50,[8],< 3.60
